ChEMBL document CHEMBL1201862, “PubChem BioAssay data set” (2004)
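Dose response: 5 concentrations. Exposure: 48 h. Format: 96-well plates. Endpoint: linear interpolation; highest concentration if not reached. Here, GI50 denotes the concentration required for 50% inhibition of growth.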 Active and inactive are the calls of the source. No stated cut-off is given here; in the data, active = GI50 up to about 1.1 µM and inactive = higher.

Assays:
Test in all cases: NCI tumour cell line growth inhibition, 48 h
SF-539 = system: SF-539
CCRF-CEM = system: CCRF-CEM
HCT-116 = system: HCT-116
NCI-H460 = system: NCI-H460
LOX IMVI = system: LOX IMVI
ACHN = system: ACHN
A498 = system: A498
SK-MEL-28 = system: SK-MEL-28
U-251 = system: U-251
K562 = system: K562
SN12C = system: SN12C
EKVX = system: EKVX
HL-60 = system: HL-60
Malme-3M = system: Malme-3M
OVCAR-8 = system: OVCAR-8
SK-OV-3 = system: SK-OV-3
SF-268 = system: SF-268
Hs-578T = system: Hs-578T
MCF7 = system: MCF7
PC-3 = system: PC-3

Row | Structure (SMILES) | GI50 (SF-539) | GI50 (CCRF-CEM) | GI50 (HCT-116) | GI50 (NCI-H460) | GI50 (LOX IMVI) | GI50 (ACHN) | GI50 (A498) | GI50 (SK-MEL-28) | GI50 (U-251) | GI50 (K562) | GI50 (SN12C) | GI50 (EKVX) | GI50 (HL-60) | GI50 (Malme-3M) | GI50 (OVCAR-8) | GI50 (SK-OV-3) | GI50 (SF-268) | GI50 (Hs-578T) | GI50 (MCF7) | GI50 (PC-3)
1 | COC(=O)C(/C(=N/N)C(=O)Nc1cc(Cl)ccc1Cl)c1nc2ccc([N+](=O)[O-])cc2nc1O (stereo not drawn) | 93.3 µM (inactive) | 25 µM (inactive) | > 100 µM (inactive) | > 100 µM (inactive) | > 100 µM (inactive) | 39.1 µM (inactive) | 58.5 µM (inactive) | > 100 µM (inactive) | > 100 µM (inactive) | 2.74 µM (inactive) | > 100 µM (inactive) | 72.8 µM (inactive) | > 100 µM (inactive) | > 100 µM (inactive) | > 100 µM (inactive) | > 100 µM (inactive) | 92.3 µM (inactive) | – | – | –
2 | O=P(c1ccccc1)(c1ccccc1)C(NCc1ccccc1)c1ccc(F)cc1 (stereo not drawn) | 17.7 µM (inactive) | 16.9 µM (inactive) | 12.8 µM (inactive) | 12.2 µM (inactive) | 14.2 µM (inactive) | 13.8 µM (inactive) | 15.2 µM (inactive) | 15.1 µM (inactive) | 15.6 µM (inactive) | 18.7 µM (inactive) | 17.9 µM (inactive) | 12.7 µM (inactive) | 17.5 µM (inactive) | 17.9 µM (inactive) | 19 µM (inactive) | 16.1 µM (inactive) | 19.7 µM (inactive) | 28.4 µM (inactive) | – | –
3 | N#Cc1ccc(/C=N/C23CC4CC(CC(C4)C2)C3)cc1 | > 100 µM (inactive) | 96.8 µM (inactive) | 39.4 µM (inactive) | > 100 µM (inactive) | 76.6 µM (inactive) | > 100 µM (inactive) | > 100 µM (inactive) | > 100 µM (inactive) | > 100 µM (inactive) | 39.5 µM (inactive) | > 100 µM (inactive) | > 100 µM (inactive) | 27 µM (inactive) | > 100 µM (inactive) | > 100 µM (inactive) | > 100 µM (inactive) | > 100 µM (inactive) | – | – | –
4 | COc1cc(NCc2ccc3oc(=O)c(-c4ccccc4)nc3c2)cc(OC)c1OC | > 10 µM (inactive) | > 10 µM (inactive) | > 10 µM (inactive) | > 10 µM (inactive) | > 10 µM (inactive) | > 10 µM (inactive) | – | > 10 µM (inactive) | > 10 µM (inactive) | > 10 µM (inactive) | > 10 µM (inactive) | > 10 µM (inactive) | > 10 µM (inactive) | – | > 10 µM (inactive) | > 10 µM (inactive) | > 10 µM (inactive) | > 10 µM (inactive) | > 10 µM (inactive) | > 10 µM (inactive)
5 | CCN(N=O)C1C2(CCCC2)NC(=O)C12CCCC2 (stereo not drawn) | > 100 µM (inactive) | > 100 µM (inactive) | > 100 µM (inactive) | > 100 µM (inactive) | > 100 µM (inactive) | > 100 µM (inactive) | > 100 µM (inactive) | > 100 µM (inactive) | > 100 µM (inactive) | > 100 µM (inactive) | > 100 µM (inactive) | > 100 µM (inactive) | > 100 µM (inactive) | > 100 µM (inactive) | > 100 µM (inactive) | > 100 µM (inactive) | > 100 µM (inactive) | – | – | –
6 | CCOC(=O)C1C2CCC1CC(=NNc1ccc([N+](=O)[O-])cc1[N+](=O)[O-])C2 (stereo not drawn) | > 50 µM (inactive) | > 50 µM (inactive) | > 50 µM (inactive) | > 50 µM (inactive) | > 50 µM (inactive) | > 50 µM (inactive) | – | > 50 µM (inactive) | > 50 µM (inactive) | 29.2 µM (inactive) | > 50 µM (inactive) | 30.3 µM (inactive) | – | > 50 µM (inactive) | > 50 µM (inactive) | > 50 µM (inactive) | > 50 µM (inactive) | – | > 50 µM (inactive) | 39.6 µM (inactive)
7 | CCOC(=N)n1c(=O)n(C2=NCCN2)c2ccccc21 | > 100 µM (inactive) | > 100 µM (inactive) | > 100 µM (inactive) | > 100 µM (inactive) | > 100 µM (inactive) | > 100 µM (inactive) | > 100 µM (inactive) | > 100 µM (inactive) | > 100 µM (inactive) | > 100 µM (inactive) | > 100 µM (inactive) | > 100 µM (inactive) | > 100 µM (inactive) | > 100 µM (inactive) | > 100 µM (inactive) | > 100 µM (inactive) | > 100 µM (inactive) | – | > 100 µM (inactive) | > 100 µM (inactive)
8 | CCOc1ccc2c(c1)[n+]([O-])c(-c1nc3ccccc3s1)c(N)[n+]2[O-] | 43.1 µM (inactive) | 48 µM (inactive) | – | 58.7 µM (inactive) | 64 µM (inactive) | 55.1 µM (inactive) | 61.8 µM (inactive) | 38.7 µM (inactive) | 46.7 µM (inactive) | 61.9 µM (inactive) | 82.6 µM (inactive) | 53.1 µM (inactive) | 31.2 µM (inactive) | > 100 µM (inactive) | 75.2 µM (inactive) | > 100 µM (inactive) | 32.1 µM (inactive) | – | – | –
9 | COC(=O)Cc1cc(=O)oc2c1C(=O)CCC2 | > 100 µM (inactive) | > 100 µM (inactive) | > 100 µM (inactive) | > 100 µM (inactive) | > 100 µM (inactive) | > 100 µM (inactive) | > 100 µM (inactive) | > 100 µM (inactive) | > 100 µM (inactive) | > 100 µM (inactive) | > 100 µM (inactive) | > 100 µM (inactive) | > 100 µM (inactive) | > 100 µM (inactive) | > 100 µM (inactive) | > 100 µM (inactive) | > 100 µM (inactive) | – | – | –
10 | O=C(c1c(F)c(F)c(F)c(F)c1F)n1c(=S)n(C(=O)c2c(F)c(F)c(F)c(F)c2F)c2ccccc21 | > 100 µM (inactive) | 12.3 µM (inactive) | > 100 µM (inactive) | > 100 µM (inactive) | 35.7 µM (inactive) | > 100 µM (inactive) | – | 59.2 µM (inactive) | > 100 µM (inactive) | 22.2 µM (inactive) | > 100 µM (inactive) | – | 12.9 µM (inactive) | – | > 100 µM (inactive) | > 100 µM (inactive) | 39.9 µM (inactive) | > 100 µM (inactive) | 69.8 µM (inactive) | 64 µM (inactive)
11 | NCCSc1nc2ccccc2c(=O)n1-c1ccccc1 | 32.7 µM (inactive) | 45.7 µM (inactive) | 60.3 µM (inactive) | – | 71.9 µM (inactive) | 21.6 µM (inactive) | 26.5 µM (inactive) | > 100 µM (inactive) | 34.4 µM (inactive) | 39.9 µM (inactive) | > 100 µM (inactive) | > 100 µM (inactive) | 32.8 µM (inactive) | 30.2 µM (inactive) | 56.6 µM (inactive) | > 100 µM (inactive) | – | – | 90.8 µM (inactive) | 27.9 µM (inactive)
12 | Cn1nc(-c2ccccc2)nc1[N+](=O)[O-] | > 10 µM (inactive) | > 10 µM (inactive) | > 10 µM (inactive) | > 10 µM (inactive) | > 10 µM (inactive) | > 10 µM (inactive) | > 10 µM (inactive) | > 10 µM (inactive) | > 10 µM (inactive) | > 10 µM (inactive) | > 10 µM (inactive) | > 10 µM (inactive) | > 10 µM (inactive) | > 10 µM (inactive) | > 10 µM (inactive) | > 10 µM (inactive) | > 10 µM (inactive) | > 10 µM (inactive) | – | > 10 µM (inactive)
13 | COC1OC(C)C(O)CC1OS(=O)(=O)c1ccc(C)cc1 (stereo not drawn) | > 100 µM (inactive) | > 100 µM (inactive) | > 100 µM (inactive) | > 100 µM (inactive) | > 100 µM (inactive) | > 100 µM (inactive) | > 100 µM (inactive) | > 100 µM (inactive) | > 100 µM (inactive) | > 100 µM (inactive) | > 100 µM (inactive) | > 100 µM (inactive) | > 100 µM (inactive) | > 100 µM (inactive) | > 100 µM (inactive) | > 100 µM (inactive) | > 100 µM (inactive) | – | – | –
14 | COc1cc(O)c2c(c1)C(=O)C1=C(C2=O)C(O)C[C@@](C)(O)C1 (stereo partly drawn) | 2.57 µM (inactive) | 2.39 µM (inactive) | 0.445 µM (active) | 1.92 µM (inactive) | 0.424 µM (active) | 0.684 µM (active) | 1.28 µM (inactive) | 1.5 µM (inactive) | 2.49 µM (inactive) | 0.457 µM (active) | 1.29 µM (inactive) | 3.38 µM (inactive) | 0.451 µM (active) | 0.557 µM (active) | 1.16 µM (inactive) | 5.9 µM (inactive) | 2.01 µM (inactive) | – | – | –
15 | Clc1ccc(OCc2nnc3sc(SSc4nn5c(COc6ccc(Cl)cc6)nnc5s4)nn23)cc1 | > 100 µM (inactive) | – | > 100 µM (inactive) | > 100 µM (inactive) | > 100 µM (inactive) | > 100 µM (inactive) | – | > 100 µM (inactive) | > 100 µM (inactive) | 74.3 µM (inactive) | > 100 µM (inactive) | 66.5 µM (inactive) | > 100 µM (inactive) | > 100 µM (inactive) | > 100 µM (inactive) | > 100 µM (inactive) | > 100 µM (inactive) | > 100 µM (inactive) | – | –
16 | Nc1ccc(-c2nn3c(COc4ccc(Cl)cc4)nnc3s2)cc1 | – | – | – | 40 µM (inactive) | > 100 µM (inactive) | > 100 µM (inactive) | – | > 100 µM (inactive) | > 100 µM (inactive) | > 100 µM (inactive) | > 100 µM (inactive) | 86.9 µM (inactive) | > 100 µM (inactive) | > 100 µM (inactive) | > 100 µM (inactive) | > 100 µM (inactive) | – | 25.3 µM (inactive) | – | 88.7 µM (inactive)
